Broadly, the IC50 is the concentration that inhibits the measured activity by half.

Here are results for two compounds from ChEMBL document CHEMBL4052612, “Isolation and Identification of the Novel Tubulin Polymerization Inhibitor Bifidenone” (J Nat Prod, 2017).

For assay [1], the system named is M14. Briefly: Antiproliferative activity against human M14 cells after 72 hrs by CellTiter96 AQueous nonradioactive cell proliferation assay. It counts as functional, cell-based. The following applies: M14, 72 h.
Assay [2] relates to A-375. Briefly: Antiproliferative activity against human A375 cells after 72 hrs by CellTiter96 AQueous nonradioactive cell proliferation assay. It counts as functional, cell-based. The following applies: A-375, 72 h.
A short description of assay [3]: Antiproliferative activity against human NCI60 cells after 48 hrs by SRB assay. Type of assay: functional, cell-based. Particulars: NCI60, 48 h. On the technique in general: In SRB staining, fixed cells bind dye roughly in proportion to their protein.
Assay [4] has as its system ACHN. Briefly: Antiproliferative activity against human ACHN cells after 72 hrs by CellTiter96 AQueous nonradioactive cell proliferation assay. Type of assay: functional, cell-based.
Assay [5] is filed under the species Sus scrofa. The experiment in a line: Displacement of vincristine from vinca alkaloid binding site of pig brain tubulin up to 100 uM by LC-MS analysis.
Assay [6] concerns RAW264.7. The experiment in a line: Antiproliferative activity against mouse RAW264.7 cells after 18 hrs by CellTiter96 AQueous nonradioactive cell proliferation assay. Type of assay: cell-based. Particulars: RAW264.7, 18 h.
The test system of assay [7] is MDA-MB-435. The experiment in a line: Antiproliferative activity against human MDA-MB-435 cells after SRB assay. It counts as functional, cell-based.
The test system of assay [8] is SF-295. The experiment in a line: Antiproliferative activity against human SF295 cells after 72 hrs by CellTiter96 AQueous nonradioactive cell proliferation assay. It counts as functional, cell-based. Particulars: SF-295, 72 h.
In assay [9] the test system is UACC-62. The experiment in a line: Antiproliferative activity against human UACC62 cells after 72 hrs by CellTiter96 AQueous nonradioactive cell proliferation assay. Type of assay: functional, cell-based. Particulars: UACC-62, 72 h.
In assay [10] the test system is NCI-H460. Briefly: Antiproliferative activity against human NCI-H460 cells after 72 hrs by CellTiter96 AQueous nonradioactive cell proliferation assay. The following applies: NCI-H460, 72 h. It counts as functional, cell-based.
Assay [11] relates to SR. Briefly: Antiproliferative activity against human SR cells after 48 hrs by SRB assay. It counts as functional, cell-based.
For assay [12], the system named is Malme-3M. Briefly: Antiproliferative activity against human MALME-3M cells after 48 hrs by SRB assay. It counts as functional, cell-based.
The test system of assay [13] is NCI-H460. Briefly: Induction of apoptosis in human NCI-H460 cells upto 100 uM assessed as increase in caspase3/7 activity after 24 hrs by Caspase-Glo 3/7 assay relative to control. It counts as functional.
The test system of assay [14] is NCI-H460. The experiment in a line: Induction of necrosis in human NCI-H460 cells upto 100 uM assessed as increase in LDH levels after 24 hrs by CytoTox 96 nonradioactive cytotoxicity assay. Type of assay: functional, cell-based.
Assay [15] relates to HCC 2998. Briefly: Antiproliferative activity against human HCC2998 cells after 48 hrs by SRB assay. It counts as functional, cell-based. The following applies: HCC 2998, 48 h.
For assay [16], the system named is NCI/ADR-RES. Briefly: Antiproliferative activity against human NCI-ADR-RES cells after 48 hrs by SRB assay. It counts as functional, cell-based.
In assay [17] the test system is NCI-H460. Briefly: Cell cycle arrest in human NCI-H460 cells assessed as accumulation at G2/M phase at 1.5 uM measured after 6 to 24 hrs in the presence of RNase A by propidium iodide staining-based flow cytometry analysis. It counts as functional. In general terms: Flow cytometry measures light scatter and fluorescence of single cells or particles in a stream.
The species entered for assay [18] is Sus scrofa. Briefly: Inhibition of pig brain tubulin polymerization measured every 1 min for 60 mins.
Assay [19] concerns PC-3. Briefly: Antiproliferative activity against human PC3 cells after 72 hrs by CellTiter96 AQueous nonradioactive cell proliferation assay. Type of assay: functional, cell-based. The following applies: PC-3, 72 h.
Assay [20] relates to SK-MEL-2. The experiment in a line: Antiproliferative activity against human SK-MEL-2 cells after 72 hrs by CellTiter96 AQueous nonradioactive cell proliferation assay. It counts as functional, cell-based. The following applies: SK-MEL-2, 72 h.
The species named for assay [21] is Sus scrofa. The experiment in a line: Displacement of colchicine from colchicine-binding site of pig brain tubulin up to 100 uM by LC-MS analysis.

Active and inactive are the calls of the source. No cut-off for these calls is given here.

Consider `C=CC[C@H]1C[C@]2([C@@H](C)Cc3ccc(OC)c(OC)c3)OCOC2=CC1=O`, for which the IC50 in [1] is 0.064 µM; in assay [2] it was 0.075 µM; in assay [3] it was 0.27 µM; in assay [4], 0.36 µM; in assay [6], > 5 µM; in assay [7], < 0.1 µM. In addition, the IC50 in assay [8] is 0.25 µM; in [9], 0.044 µM; in assay [10], 0.26 µM; in assay [11], < 0.1 µM; in assay [12] it was < 0.1 µM; in assay [15], 1.41 µM. Besides, the IC50 in assay [16] turned out to be 0.17 µM; in assay [19], 0.49 µM; in assay [20], 0.095 µM. In [5], the inhibition entry is “inactive”. For the same compound, in assay [13], the “fold change (FC)” value was 2.5. In addition, the result in [14] and in assay [17] was Active. For the same compound, the inhibition result in [18] was “Dose-dependent effect”. In addition, the inhibition entry in assay [21] was “Active”.

As for `CC(=O)O[C@H]1C(=O)[C@@]2(C)[C@H]([C@H](OC(=O)c3ccccc3)[C@]3(O)C[C@H](OC(=O)[C@H](O)[C@@H](NC(=O)c4ccccc4)c4ccccc4)C(C)=C1C3(C)C)[C@]1(OC(C)=O)CO[C@@H]1C[C@@H]2O` [PACLITAXEL], the IC50 in assay [1] was 0.007 µM; in [2], 0.01 µM; in [4], 0.066 µM; in assay [6] it was > 5 µM; in [8], 0.056 µM; in assay [9], 0.006 µM. The IC50 is 0.01 µM in [10], > 10 µM in assay [16], 0.004 µM in assay [19] and 0.009 µM in assay [20].
